Test results taken from the supplement of paper PMC10627819.

Columns and labels:
B. subtilis 168 [1] = test: fitness (endpoint OD595 vs no drug) (fraction); higher = more growth
In short: (§1)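 Fitness is computed from the optical density at which cultures reach stationary phase, divided by the robust mean of no-drug control wells. Any value above 1 is set to 1. Cultures started at OD595 0.01 in 384-well plates with TSB, LB Lennox or CY at 37 °C, and OD595 was read every 30 min for 14 h against a first-reading background.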

S. aureus DSM 20231 [2] = test: as above
In short: as §1

B. subtilis 168 [3] = test: Bliss interaction score (quartile over a dose matrix) (fitness difference); higher = more antagonism (negative = synergy)
In short: (§2)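 Growth was read as OD595 when cultures entered stationary phase, and each value was divided by the plate's robust no-drug mean and capped at 1. This normalised ratio is the fitness value, and fitness for each single drug came from the combination data. The Bliss score subtracts the expected fitness, taken as the product, from the observed fitness and is given as quartiles across technical, biological and donor/recipient replicates.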

S. aureus Newman [4] = test: as above
In short: as §2

S. pneumoniae D39V = test: as above
In short: as §2

S. aureus DSM 20231 [5] = test: as above
In short: as §2

S. aureus Newman [6] = test: fitness (endpoint OD595 vs no drug) (fraction); higher = more growth
In short: as §1
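Wherever Bliss interaction score (quartile over a dose matrix) is given: first quartile when negative (synergy) and third quartile when positive (antagonism).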
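Wherever fitness (endpoint OD595 vs no drug) is given: OD595 on entry to stationary phase over no-drug wells; at most 1.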

Cc1cc(NS(=O)(=O)c2ccc(N)cc2)no1 [Sulfamethoxazol] + COc1cc(Cc2cnc(N)nc2N)cc(OC)c1OC [Trimethoprim]
fitness, one replicate
Settings | first compound 0.5 µg/mL | first compound 1 µg/mL | first compound 2 µg/mL | first compound 4 µg/mL
B. subtilis 168 [1], partner 0.1 µg/mL | – | 0.607 | 0.473 | 0.373
B. subtilis 168 [1], partner 0.125 µg/mL | 0.481 | – | – | 0.285
B. subtilis 168 [1], partner 0.2 µg/mL | – | 0.489 | 0.374 | 0.353
B. subtilis 168 [1], partner 0.25 µg/mL | 0.389 | – | – | –
B. subtilis 168 [1], partner 0.4 µg/mL | – | 0.343 | 0.318 | 0.352
B. subtilis 168 [1], partner 0.5 µg/mL | 0.299 | – | – | –
B. subtilis 168 [1], partner 1 µg/mL | – | 0.37 | 0.245 | 0.226
B. subtilis 168 [1], partner 2 µg/mL | – | 0.323 | 0.163 | 0.109
S. aureus DSM 20231 [2], partner 0.125 µg/mL | – | 0.534 | 0.22 | 0.041

fitness
Settings | first compound 1 µg/mL | first compound 2 µg/mL | first compound 4 µg/mL
B. subtilis 168 [1], partner 0.125 µg/mL | 0.375 | 0.305 | –
B. subtilis 168 [1], partner 0.25 µg/mL | 0.351 | 0.376 | –
B. subtilis 168 [1], partner 0.5 µg/mL | 0.35 | 0.337 | 0.288
S. aureus DSM 20231 [2], partner 0.25 µg/mL | 0.0669 | 0.0417 | 0.023
S. aureus DSM 20231 [2], partner 0.5 µg/mL | 0.015 | 0.0145 | 0.0126
S. aureus DSM 20231 [2], partner 1 µg/mL | 0.0332 | 0.0147 | 0.013

Settings | Bliss interaction score
B. subtilis 168 [3] | -0.173
S. aureus DSM 20231 [5] | -0.481
S. aureus Newman [4] | 0.0676
S. pneumoniae D39V | -0.364

CC[C@H]1OC(=O)[C@H](C)[C@@H](O[C@H]2C[C@@](C)(OC)[C@@H](O)[C@H](C)O2)[C@H](C)[C@@H](O[C@@H]2O[C@H](C)C[C@H](N(C)C)[C@H]2O)[C@](C)(O)C[C@@H](C)CN(C)[C@H](C)[C@@H](O)[C@]1(C)O [Azithromycin] + O=C(N[C@H](CO)[C@H](O)c1ccc([N+](=O)[O-])cc1)C(Cl)Cl [Chloramphenicol]
fitness
Settings | first compound 0.125 µg/mL | first compound 0.25 µg/mL | first compound 0.5 µg/mL
S. aureus DSM 20231 [2], partner 0.75 µg/mL | 0.703 | 0.657 | 0.29
S. aureus DSM 20231 [2], partner 1.5 µg/mL | 0.544 | 0.366 | 0.139
S. aureus DSM 20231 [2], partner 3 µg/mL | 0.155 | 0.113 | 0.0604
S. aureus Newman [6], partner 0.75 µg/mL | 0.76 | 0.692 | 0.461
S. aureus Newman [6], partner 1.5 µg/mL | 0.515 | 0.527 | 0.253
S. aureus Newman [6], partner 3 µg/mL | – | 0.2 | 0.109

Settings | Bliss interaction score
B. subtilis 168 [3] | -0.116
S. aureus DSM 20231 [5] | -0.153
S. aureus Newman [4] | -0.101
S. pneumoniae D39V | 0.0336

Cc1onc(-c2ccccc2)c1C(=O)N[C@@H]1C(=O)N2[C@@H]1SC(C)(C)[C@@H]2C(=O)O [Oxacillin] + CCCCCCCCCC(=O)N[C@@H]1[C@H]([C@@H]([C@H](O[C@H]1OC2=C3C=C4C=C2OC5=C(C=C(C=C5)[C@H]([C@H]6C(=O)N[C@@H](C7=C(C(=CC(=C7)O)OC8[C@H]([C@H]([C@@H]([C@H](O8)CO)O)O)O)C9=C(C=CC(=C9)[C@H](C(=O)N6)NC(=O)[C@@H]4NC(=O)[C@@H]1C2=CC(=CC(=C2)OC2=C(C=CC(=C2)[C@H](C(=O)N[C@H](CC2=CC(=C(O3)C=C2)Cl)C(=O)N1)N)O)O)O)C(=O)O)O[C@H]1[C@@H]([C@H]([C@@H]([C@H](O1)CO)O)O)NC(=O)C)Cl)CO)O)O [Teicoplanin]
fitness, main component drawn
Settings | first compound 0.0156 µg/mL | first compound 0.0312 µg/mL | first compound 0.0625 µg/mL
S. aureus DSM 20231 [2], partner 0.1562 µg/mL | 0.833 | 0.743 | 0.492
S. aureus DSM 20231 [2], partner 0.3125 µg/mL | 0.877 | 0.811 | 0.485
S. aureus DSM 20231 [2], partner 0.625 µg/mL | 0.813 | 0.693 | 0.541
S. aureus Newman [6], partner 0.1562 µg/mL | 0.746 | 0.702 | 0.595
S. aureus Newman [6], partner 0.3125 µg/mL | 0.732 | 0.708 | 0.596
S. aureus Newman [6], partner 0.625 µg/mL | 0.721 | 0.65 | –

fitness, S. aureus Newman [6], one replicate, main component drawn
Settings | first compound 0.0156 µg/mL | first compound 0.0312 µg/mL | first compound 0.0625 µg/mL
partner 0.62 µg/mL | 0.603 | 0.638 | 0.534
partner 1.24 µg/mL | 0.668 | 0.596 | 0.351
partner 2.48 µg/mL | 0.429 | 0.16 | 0.143

main component drawn
Settings | Bliss interaction score
B. subtilis 168 [3] | -0.0735
S. aureus DSM 20231 [5] | 0.062
S. aureus Newman [4] | -0.0741
S. pneumoniae D39V | -0.0582

CC[C@H]1OC(=O)[C@H](C)[C@@H](O[C@H]2C[C@@](C)(OC)[C@@H](O)[C@H](C)O2)[C@H](C)[C@@H](O[C@@H]2O[C@H](C)C[C@H](N(C)C)[C@H]2O)[C@](C)(O)C[C@@H](C)CN(C)[C@H](C)[C@@H](O)[C@]1(C)O [Azithromycin] + CCCCCCCCCC(=O)N[C@@H]1[C@H]([C@@H]([C@H](O[C@H]1OC2=C3C=C4C=C2OC5=C(C=C(C=C5)[C@H]([C@H]6C(=O)N[C@@H](C7=C(C(=CC(=C7)O)OC8[C@H]([C@H]([C@@H]([C@H](O8)CO)O)O)O)C9=C(C=CC(=C9)[C@H](C(=O)N6)NC(=O)[C@@H]4NC(=O)[C@@H]1C2=CC(=CC(=C2)OC2=C(C=CC(=C2)[C@H](C(=O)N[C@H](CC2=CC(=C(O3)C=C2)Cl)C(=O)N1)N)O)O)O)C(=O)O)O[C@H]1[C@@H]([C@H]([C@@H]([C@H](O1)CO)O)O)NC(=O)C)Cl)CO)O)O [Teicoplanin]
fitness, main component drawn
Settings | partner 0.1562 µg/mL | partner 0.3125 µg/mL | partner 0.625 µg/mL
S. aureus DSM 20231 [2], first compound 0.125 µg/mL | 0.915 | 0.924 | 0.991
S. aureus DSM 20231 [2], first compound 0.25 µg/mL | 0.935 | 0.987 | ≥ 1
S. aureus Newman [6], first compound 0.125 µg/mL | 0.899 | 0.928 | ≥ 1
S. aureus Newman [6], first compound 0.25 µg/mL | 0.978 | 0.974 | 0.775

fitness, S. aureus Newman [6], one replicate, main component drawn
Settings | first compound 0.125 µg/mL | first compound 0.25 µg/mL | first compound 0.5 µg/mL
partner 0.62 µg/mL | 0.799 | 0.998 | 0.863
partner 1.24 µg/mL | 0.786 | 0.812 | 0.896
partner 2.48 µg/mL | 0.57 | 0.55 | 0.579

main component drawn
Settings | Bliss interaction score
B. subtilis 168 [3] | -0.0653
S. aureus DSM 20231 [5] | 0.104
S. aureus Newman [4] | 0.169
S. pneumoniae D39V | 0.0706
